“Also recorded” adds a separate entry of the source. Read-outs that look alike come from different tables or passages of the source.
Tests used:
[1] = Thiol (NAC) reactivity study by HPLC; type: physicochemical; conditions: for order of reactivity with NAC (pseudo-first-order kinetics): 0.3 mM analog, 1.5 mM NAC
Description: HPLC was performed on Shimadzu LC-20AT HPLC system. Condition: mobile phase A: water with 0.05% TFA; B: acetonitrile with 0.05% TFA; gradient: 5-95% B, 0-10 min; […]; 5% B 12.1-15 min. Column: C18, 3.5 μm, 4.6×150 mm; UV detector monitored at 254 nm. For the thiol reactivity assay, a 0.3 mM solution of AQ-analogs was prepared in 0.5 mL PBS: MeOH (80:20) and warmed at 37° C. Next, 25 μL of NAC (from 30 mM stock solution in PBS) was added to the above solution. The resultant solution had final concentrations of 0.3 mM AQ-analogs and 1.5 mM NAC. 20 μL of the reaction mixture was injected into the HPLC at the designated time intervals. The area percentage values were determined via the integration of the area under the curve (AUC) of the chromatogram.

[2] = test system: EU-1 cells; assay: Cytotoxicity test (CCK-8 cell viability) in EU-1 cells; type: cell-based; conditions: for IC50: read-out: IC50 (μM) in EU-1 cells; for fold more potent than BW-AQ-238: compared to BW-AQ-238
Description: (§1) Cell viability was assessed by using Cell Counting Kit-8 (CCK-8, Dojindo, Japan). EU-1 and RS4;11 cells were cultured in RPMI-1640 medium (Corning, USA); MCF7 and HEK-293 cells were cultured in MEM (Corning, USA); and HeLa and H9c2 cells were cultured in high glucose DMEM (Corning, USA). All the culture mediums were supplemented with 10% fetal bovine serum (Corning, USA) and 100 unit/ml penicillin, and […] streptomycin. For cytotoxicity assays, cells were seeded into 96-well plates at a density of 3× 10^5 cells per well (50 μL). Compounds were dissolved in DMSO (molecular biology grade, Sigma-Aldrich, USA) to make 10 mM stock solutions, which were serially diluted with the culture medium to various concentrations (final DMSO concentration=0.5%). A culture medium (50 μL) containing the anthraquinone analog was added directly to the cell suspension in each well immediately after seeding. After incubation for 24 h at 37° C. in a humidified atmosphere with 5% CO2, 10 μL of CCK-8 solution was added to each well, and the plate was incubated for an additional 2-4 h at 37° C. before measuring the optical density at 450 nm with a microplate reader (PerkinElmer Victor 2, USA). The cell viability of each well was calculated as the percentage of the untreated control according to the manufacturer's manual. All tests were performed in triplicates, and IC50 values were determined with six concentrations by non-linear regression using GraphPad Prism 9.

[3] = test system: RS4;11 cells; assay: Cytotoxicity test (CCK-8) in RS4;11 cells; type: cell-based; conditions: Homo sapiens
Description: as §1, with “A culture medium (50 μL) containing the anthraquinone analog was added directly to the cell suspension in each well immediately after seeding.” left out

[4] = test system: MCF7 cells; assay: Cytotoxicity test (CCK-8) in MCF7 cells; type: cell-based; conditions: Homo sapiens
Description: as §1, with “A culture medium (50 μL) containing the anthraquinone analog was added directly to the cell suspension in each well immediately after seeding.” left out

[5] = test system: H9c2 cells; assay: Cytotoxicity test (CCK-8) in H9c2 cells; type: cell-based; conditions: Rattus norvegicus
Description: as §1, with “A culture medium (50 μL) containing the anthraquinone analog was added directly to the cell suspension in each well immediately after seeding.” left out

[6] = test system: MDM2 and p53 in EU-1 leukemia cells; assay: Western blot of MDM2 and p53 in EU-1 leukemia cells; type: cell-based; conditions: EU-1 cells; for MDM2 and p53 level by Western blot, dose and time dependence: GAPDH loading control
Description: Western Blot 5×10^6 cells were seeded in a 6-well plate and incubated for 12 h before the drug-loaded medium was added. The cells were harvested at designated time points, washed with cold PBS, and centrifuged at 1500 rpm×3 min. Then the cells were lysed by adding 100 μL of cold NP-40 buffer (supplied with complete™ protease Inhibitor tablet (Roche, USA)) and 1 mM PMSF (Thermo-Fisher, USA) on ice for 30 min. The cell lysates were centrifuged at 12500×g at 4° C. for 10 min, and the total protein concentration in the supernatant was measured with the BCA assay (Thermo-Fisher, USA). 30 μL of the cell lysate was mixed with 10 μL 4×Laemmli sample buffer and denatured at 95° C. for 5 min. The total protein concentration was adjusted with 1×Laemmli sample buffer. Equal amounts of protein sample were loaded onto a 4-15% gradient SDS-PAGE gel (Bio-rad, USA). After electrophoresis, the protein was transferred to the […] membrane (Bio-rad, USA) with the Trans-Blot Turbo system (Bio-rad, USA). The target protein was probed with the corresponding antibody using iBind Western Systems (Thermo-Fisher, USA), according to the manufacturer's manual. Antibody and dilution profile: MDM2 ((SMP14), 1:500 Santa Cruz, USA); p53 ((DO-1), 1:800, Santa Cruz, USA); GAPDH ((0411), 1:2000, Santa Cruz, USA) and HRP conjugated goat anti-mouse secondary antibody (1:2000, Bio-rad, USA). After incubation with Pierce ECL Plus Substrate (Thermo Scientific), chemiluminescent was detected and imaged with LSA^4000 (GE Healthcare, Fairfield, USA).

[7] = test system: HEK-293 cells; assay: Cytotoxicity test (CCK-8) in HEK-293 cells; type: cell-based; conditions: Homo sapiens, HEK293
Description: as §1, with “A culture medium (50 μL) containing the anthraquinone analog was added directly to the cell suspension in each well immediately after seeding.” left out

[8] = test system: HeLa cells; assay: Cytotoxicity test (CCK-8) in HeLa cells; type: cell-based; conditions: for IC50: Homo sapiens, HeLa cells
Description: as §1

[9] = test system: RS4;11 cells (wild-type p53); assay: Cytotoxicity test of BW-AQ-365 (CCK-8) in RS4;11 cells; type: cell-based; conditions: Homo sapiens; RS4; 11, 25000 cells/well, 48 h, positive control
Description: Cell viability was assessed by using Cell Counting Kit-8 (CCK-8, Dojindo, Japan). RS4;11 cells (wild-type p53) were cultured in RPMI-1640 medium (Corning, USA). The culture mediums were supplemented with 10% fetal bovine serum (Corning, USA) and 100 unit/ml penicillin, and […] streptomycin. […] Compounds were dissolved in DMSO (molecular biology grade, Sigma-Aldrich, USA) to make 10 mM stock solutions, which were serially diluted with the culture medium to various concentrations (final DMSO concentration=0.5%). A culture medium (50 μL) containing BW-AQ-365 was added directly to the cell suspension in each well immediately after seeding. After incubation for 24-72 h at 37° C. in a humidified atmosphere with 5% CO2, 10 μL of CCK-8 solution was added to each well, and the plate was incubated for an additional 2-4 h at 37° C. before measuring the optical density at 450 nm with a microplate reader (PerkinElmer Victor 2, USA). The cell viability of each well was calculated as the percentage of the untreated control according to the manufacturer's manual. All tests were performed in triplicates, and IC50 values were determined by non-linear regression using GraphPad Prism 9.0.

[10] = test system: EU-1 ALL cells; conditions: background; cited from earlier work
[11] = EU-1 cells, 24 h incubation, CCK-8
[12] = EU-1 cells, compared to BW-AQ-295

Structure (SMILES): CC(=O)CCCOc1cccc2c1C(=O)c1c(OCCCC(C)=O)cc(NC(C)=O)cc1C2=O [BW-AQ-349, N-(9,10-dioxo-4,5-bis ((4-oxopentyl)oxy)-9,10-dihydroanthracen-2-yl)acetamide]
- stability in presence of NAC ([1]; 37° C. in PBS, HPLC): remained unchanged during the study duration (>400 min)
- order of reactivity with NAC (pseudo-first-order kinetics) ([1]; 37° C. in PBS, HPLC): BW-AQ-350 >BW-AQ-353 >BW-AQ-295 ~ BW-AQ-354 >>BW-AQ-349
- IC50 ([2]; EU-1, 24 h): > 100 µM
- cytotoxicity in EU-1 cells, in words ([2]; EU-1 cells): lack of activity

Structure (SMILES): CC(=O)CCOc1cccc2c1C(=O)c1c(OCCC(C)=O)cc(NC(=O)CCl)cc1C2=O [BW-AQ-260, 2-chloro-N-(9,10-dioxo-4,5-bis(3-oxobutoxy)-9,10-dihydroanthracen-2-yl)acetamide]
- IC50 [2, 11]: 0.45 µM
- fold more potent than BW-AQ-238 ([2]; EU-1 cells): about 3 fold

Structure (SMILES): CC(=O)CCCOc1cccc2c1C(=O)c1c(OCCCC(C)=O)cc(NC(=O)CCl)cc1C2=O [BW-AQ-295, 2-chloro-N-(9,10-dioxo-4,5-bis ((4-oxopentyl)oxy)-9,10-dihydroanthracen-2-yl)acetamide]
- IC50 [3]: 0.69 ± 0.1 µM
- IC50 [4]: 0.95 ± 0.17 µM
- IC50 [5]: 1.12 ± 0.2 µM
- reactivity towards thiol, in words [1]: reacts with thiol species
- order of reactivity with NAC (pseudo-first-order kinetics) ([1]; 37° C. in PBS, HPLC): BW-AQ-350 >BW-AQ-353 >BW-AQ-295 ~ BW-AQ-354 >>BW-AQ-349
- MDM2 and p53 level by Western blot, time course ([6]; 0.8 μM): decreased MDM2 and increased p53 level were observed from the 4-h time point
- MDM2 level by Western blot ([6]; 2 μM, 6 h): decreased MDM2 to an almost undetectable level
- MDM2 and p53 level by Western blot, dose and time dependence [6]: decrease MDM2 level and increase p53 level in a dose- and time-dependent manner; also recorded: downregulate MDM2 and upregulate p53 in EU-1 cells in a time- and dose-dependent fashion; also recorded: downregulation of MDM2 and upregulation p53
- IC50 [7]: 1.16 ± 0.34 µM
- IC50 [2, 11]: 0.43 ± 0.06 µM
- fold more potent than BW-AQ-238 ([2]; EU-1 cells): about 3 fold
- fold less potency in HeLa cells compared to MCF7 cells ([8]; HeLa vs MCF7): over 2 fold
- IC50 [8]: 2.31 ± 0.08 µM

Structure (SMILES): C#CC(N)=O [Propiolamide, reference compound]
- IC50 [2, 11]: 33.5 ± 7.8 µM

Structure (SMILES): COc1cccc2c1C(=O)c1c(O)c3c(c(O)c1C2=O)C[C@@](O)(C(=O)CO)C[C@@H]3O[C@H]1C[C@H](N)[C@H](O)[C@H](C)O1 [Doxorubicin, reference compound]
- IC50 [9]: 0.0531 ± 0.0061 µM
- IC50 [2, 11]: 0.15 ± 0.02 µM

Structure (SMILES): C#CC(=O)Nc1cc(OCCCC(C)=O)c2c(c1)C(=O)c1cccc(OCCCC(C)=O)c1C2=O [BW-AQ-350, N-(9,10-dioxo-4,5-bis ((4-oxopentyl)oxy)-9,10-dihydroanthracen-2-yl) propiolamide]
- IC50 [3]: 0.52 ± 0.07 µM
- IC50 [4]: 4.93 ± 0.45 µM
- IC50 [5]: ~0.3 µM
- reactivity towards thiol, in words [1]: high reactivity towards nucleophile such as thiol and amino acid
- order of reactivity with NAC (pseudo-first-order kinetics) ([1]; 37° C. in PBS, HPLC): BW-AQ-350 >BW-AQ-353 >BW-AQ-295 ~ BW-AQ-354 >>BW-AQ-349
- MDM2 and p53 level by Western blot, dose and time dependence [6]: induced decrease in MDM2 levels in a dose- and time-dependent fashion; also recorded: downregulate MDM2 and upregulate p53 in EU-1 cells in a time- and dose-dependent fashion; also recorded: downregulation of MDM2 and upregulation p53
- IC50 [7]: 2.35 ± 0.69 µM
- IC50 [2, 11]: 0.19 µM
- fold increase in potency compared to BW-AQ-295 [2, 12]: 2 fold
- IC50 [8]: 4.67 ± 0.25 µM

Structure (SMILES): CC(=O)CCCCOc1cccc2c1C(=O)c1c(OCCCCC(C)=O)cc(NC(=O)CCl)cc1C2=O [BW-AQ-345, 2-chloro-N-(9,10-dioxo-4,5-bis ((5-oxohexyl)oxy)-9,10-dihydroanthracen-2-yl)acetamide]
- IC50 ([2]; EU-1, 24 h): 0.79 ± 0.03 µM

Structure (SMILES): O=C(CCl)Nc1cc(OCCO)c2c(c1)C(=O)c1cccc(OCCO)c1C2=O [BW-AQ-238, reference compound]
- IC50 [2, 11]: 0.74 ± 0.12 µM

Structure (SMILES): C=CC(=O)Nc1cc(OCCCC(C)=O)c2c(c1)C(=O)c1cccc(OCCCC(C)=O)c1C2=O [BW-AQ-353, N-(9,10-dioxo-4,5-bis ((4-oxopentyl)oxy)-9,10-dihydroanthracen-2-yl) acrylamide]
- order of reactivity with NAC (pseudo-first-order kinetics) ([1]; 37° C. in PBS, HPLC): BW-AQ-350 >BW-AQ-353 >BW-AQ-295 ~ BW-AQ-354 >>BW-AQ-349
- IC50 [2, 11]: 6.21 ± 0.45 µM
- fold decrease in potency / less potent compared to BW-AQ-295 [2, 12]: about 15 fold

Structure (SMILES): O=C(CCl)Nc1cc(O)c2c(c1)C(=O)c1cccc(O)c1C2=O [BW-AQ-101, 2-chloro-N-(4,5-dihydroxy-9,10-dioxo-9,10-dihydroanthracen-2-yl)acetamide]
- IC50 [10]: ~0.8 µM

Structure (SMILES): CC(=O)CCCOc1cc(NC(=O)CCl)cc2c1C(=O)c1c(O)cccc1C2=O [BW-AQ-336, 2-chloro-N-(5-hydroxy-9,10-dioxo-4-((4-oxopentyl)oxy)-9,10-dihydroanthracen-2-yl)acetamide]
- IC50 [2, 11]: 0.84 ± 0.02 µM
- fold decrease in potency / less potent compared to BW-AQ-295 [2, 12]: about 2 fold

Structure (SMILES): C=CS(=O)(=O)Nc1cc(OCCCC(C)=O)c2c(c1)C(=O)c1cccc(OCCCC(C)=O)c1C2=O [BW-AQ-354, N-(9,10-dioxo-4,5-bis ((4-oxopentyl)oxy)-9,10-dihydroanthracen-2-yl) ethenesulfonamide]
- order of reactivity with NAC (pseudo-first-order kinetics) ([1]; 37° C. in PBS, HPLC): BW-AQ-350 >BW-AQ-353 >BW-AQ-295 ~ BW-AQ-354 >>BW-AQ-349
- cytotoxicity in EU-1 cells, in words ([2]; EU-1 cells): more potent than BW-AQ-353
- IC50 [2, 11]: 3.45 ± 0.45 µM
